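In this assay, cells in 96-well plates receive the compound at five concentrations for 48 hours. Endpoints are linearly interpolated between the surrounding concentrations. GI50 = concentration required for 50% inhibition of growth. Definition used: TGI = concentration required for complete inhibition of growth.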
What was measured:
Test in all cases: DTP human tumour cell line panel, 48 h
A549 NSCLC = tested on: A549 NSCLC
EKVX NSCLC = tested on: EKVX NSCLC
SK-MEL-5 melanoma = tested on: SK-MEL-5 melanoma
OVCAR-8 ovarian = tested on: OVCAR-8 ovarian
MALME-3M melanoma = tested on: MALME-3M melanoma
HT29 colon = tested on: HT29 colon
SNB-19 CNS = tested on: SNB-19 CNS
HS 578T breast = tested on: HS 578T breast
NCI/ADR-RES ovarian = tested on: NCI/ADR-RES ovarian
DU-145 prostate = tested on: DU-145 prostate

## O=C(c1ccccc1)C1OC12C(=O)Nc1ccccc12 (stereo not given)
A549 NSCLC
  TGI: > 100 µM
EKVX NSCLC
  TGI: > 100 µM
SK-MEL-5 melanoma
  TGI: 47.3 µM
OVCAR-8 ovarian
  TGI: > 100 µM
MALME-3M melanoma
  TGI: > 100 µM
HT29 colon
  TGI: 37.9 µM
SNB-19 CNS
  TGI: > 100 µM

## O=C1OC2CCCC[C@@H]2C2C[C@]34CCCCC3[C@@H](C(=O)O4)C12 (stereo not given in full)
A549 NSCLC
  TGI: > 100 µM
EKVX NSCLC
  TGI: > 100 µM
SK-MEL-5 melanoma
  TGI: > 100 µM
OVCAR-8 ovarian
  TGI: > 100 µM
MALME-3M melanoma
  TGI: > 100 µM
HT29 colon
  TGI: > 100 µM
SNB-19 CNS
  TGI: > 100 µM

## CN(C)c1cc[c]([Sn]([c]2ccc(N(C)C)cc2)([c]2ccc(N(C)C)cc2)[c]2ccc(N(C)C)cc2)cc1
A549 NSCLC
  GI50: 13.8 µM
  TGI: 37.5 µM
EKVX NSCLC
  GI50: 6.74 µM
  TGI: 28 µM
SK-MEL-5 melanoma
  GI50: 2.85 µM
  TGI: 14.2 µM
OVCAR-8 ovarian
  GI50: 9.57 µM
  TGI: 56.3 µM
HT29 colon
  GI50: 2.91 µM
  TGI: 12.7 µM
SNB-19 CNS
  GI50: 10.7 µM
  TGI: 23 µM

## O=c1c2cc(Br)cc(Br)c2nc(CCCl)n1CCO
A549 NSCLC
  TGI: > 100 µM
EKVX NSCLC
  TGI: > 100 µM
SK-MEL-5 melanoma
  TGI: > 100 µM
OVCAR-8 ovarian
  TGI: > 100 µM
MALME-3M melanoma
  TGI: > 100 µM
HT29 colon
  TGI: > 100 µM

## CCN(CC)c1ccc(N=Nc2ccc(-c3nc4ccc[n+](C)c4s3)cc2)cc1
A549 NSCLC
  TGI: 26.3 µM
EKVX NSCLC
  TGI: 58.8 µM
SK-MEL-5 melanoma
  TGI: 33.9 µM
OVCAR-8 ovarian
  TGI: 65.3 µM
MALME-3M melanoma
  TGI: 26.3 µM
HT29 colon
  TGI: 18.5 µM
SNB-19 CNS
  TGI: 25.1 µM

## CCOC(=O)NC(=O)c1cn(CCCOC(=O)CCCCCCCCCCC(=O)OCCCn2cc(C(=O)NC(=O)OCC)c(=O)[nH]c2=O)c(=O)[nH]c1=O
A549 NSCLC
  TGI: > 100 µM
EKVX NSCLC
  TGI: > 100 µM
SK-MEL-5 melanoma
  TGI: > 100 µM
OVCAR-8 ovarian
  TGI: > 100 µM
MALME-3M melanoma
  TGI: > 100 µM
HT29 colon
  TGI: > 100 µM
SNB-19 CNS
  TGI: > 100 µM

## C1C[OH+]CC[OH+]CC[OH+]CC[OH+]CC[OH+]1.[Cl-].[V]
A549 NSCLC
  GI50: 61.1 µM
  TGI: > 100 µM
SK-MEL-5 melanoma
  GI50: 7.48 µM
  TGI: 26.6 µM
OVCAR-8 ovarian
  GI50: > 100 µM
  TGI: > 100 µM
MALME-3M melanoma
  GI50: 13.4 µM
  TGI: 32 µM
HT29 colon
  GI50: > 100 µM
  TGI: > 100 µM
SNB-19 CNS
  GI50: 43.5 µM
  TGI: > 100 µM

## N#CC1CC2(C1)OCCS2 (stereo not given)
A549 NSCLC
  TGI: > 100 µM
EKVX NSCLC
  TGI: > 100 µM
OVCAR-8 ovarian
  TGI: > 100 µM
HT29 colon
  TGI: > 100 µM
SNB-19 CNS
  TGI: > 100 µM

## O=C1CCC(O)=C1N=Nc1ccccc1
A549 NSCLC
  TGI: > 100 µM
EKVX NSCLC
  TGI: > 100 µM
SK-MEL-5 melanoma
  TGI: > 100 µM
OVCAR-8 ovarian
  TGI: > 100 µM
MALME-3M melanoma
  TGI: > 100 µM
HT29 colon
  TGI: > 100 µM
SNB-19 CNS
  TGI: > 100 µM

## O=C(Nc1c(Cl)cc([N+](=O)[O-])cc1Cl)C(=O)C(C1OC(=O)c2ccccc21)[N+](=O)[O-] (stereo not given)
A549 NSCLC
  TGI: > 100 µM
EKVX NSCLC
  TGI: > 100 µM
SK-MEL-5 melanoma
  TGI: > 100 µM
OVCAR-8 ovarian
  TGI: > 100 µM
MALME-3M melanoma
  TGI: > 100 µM
HT29 colon
  TGI: > 100 µM
SNB-19 CNS
  TGI: > 100 µM

## C1CCC([PH+](C2CCCCC2)C2CCCCC2[PH+](C2CCCCC2)C2CCCCC2)CC1.O=C(C1[CH-]CCCC1)C1CCCC[N-]1.[Au] (stereo not given)
HS 578T breast
  GI50: 0.225 µM
  TGI: 1.56 µM
NCI/ADR-RES ovarian
  GI50: 1.8 µM
  TGI: > 100 µM
SK-MEL-5 melanoma
  GI50: 0.252 µM
  TGI: 0.661 µM
OVCAR-8 ovarian
  GI50: 0.245 µM
  TGI: > 100 µM
DU-145 prostate
  GI50: 0.298 µM
  TGI: 1.61 µM

## CC(=O)N[C@H]1CSSC[C@@H](C(N)=O)NC(=O)[C@H](C(C)C)NC(=O)[C@H](C)NC(=O)[C@H](Cc2cnc[nH]2)NC1=O
NCI/ADR-RES ovarian
  GI50: > 100 µM
  TGI: > 100 µM
A549 NSCLC
  GI50: > 100 µM
  TGI: > 100 µM
EKVX NSCLC
  GI50: > 100 µM
  TGI: > 100 µM
SK-MEL-5 melanoma
  GI50: > 100 µM
  TGI: > 100 µM
OVCAR-8 ovarian
  GI50: > 100 µM
  TGI: > 100 µM
MALME-3M melanoma
  GI50: > 100 µM
  TGI: > 100 µM
HT29 colon
  GI50: > 100 µM
  TGI: > 100 µM
DU-145 prostate
  GI50: > 100 µM
  TGI: > 100 µM
SNB-19 CNS
  GI50: > 100 µM
  TGI: > 100 µM

## O=C1CC2c3ccccc3CCC2c2ccccc21 (stereo not given)
HS 578T breast
  TGI: 53.4 µM
A549 NSCLC
  TGI: > 100 µM
EKVX NSCLC
  TGI: 15.3 µM
SK-MEL-5 melanoma
  TGI: 31 µM
OVCAR-8 ovarian
  TGI: 53.9 µM
HT29 colon
  TGI: 30.6 µM
DU-145 prostate
  TGI: > 100 µM
SNB-19 CNS
  TGI: > 100 µM

## C=CCc1ccc(Oc2cc(CC=C)c3c(c2O)O[C@@H](CO)[C@H]3c2ccc(O)c(-c3cc(CC=C)ccc3O)c2)cc1
A549 NSCLC
  TGI: > 100 µM
EKVX NSCLC
  TGI: > 100 µM
SK-MEL-5 melanoma
  TGI: > 100 µM
OVCAR-8 ovarian
  TGI: > 100 µM
MALME-3M melanoma
  TGI: > 100 µM
HT29 colon
  TGI: 49.1 µM
SNB-19 CNS
  TGI: > 100 µM

## O=C1CSC(/C(=N/Nc2ccccc2)c2nc3ccccc3[nH]2)=N1
A549 NSCLC
  TGI: > 100 µM
EKVX NSCLC
  TGI: > 100 µM
SK-MEL-5 melanoma
  TGI: > 100 µM
OVCAR-8 ovarian
  TGI: > 100 µM
MALME-3M melanoma
  TGI: > 100 µM
HT29 colon
  TGI: > 100 µM
SNB-19 CNS
  TGI: > 100 µM

## O=C1[C@@H]2C(c3ccccc3F)=NO[C@@H]2C(=O)N1c1ccc(Cc2ccc(N3C(=O)[C@H]4C(c5ccccc5F)=NO[C@H]4C3=O)cc2)cc1
A549 NSCLC
  TGI: > 100 µM
EKVX NSCLC
  TGI: > 100 µM
SK-MEL-5 melanoma
  TGI: > 100 µM
OVCAR-8 ovarian
  TGI: > 100 µM
MALME-3M melanoma
  TGI: > 100 µM
HT29 colon
  TGI: > 100 µM
SNB-19 CNS
  TGI: > 100 µM

## COc1cc(/C=C(\C#N)c2ccccc2)cc(OC)c1
A549 NSCLC
  TGI: > 100 µM
EKVX NSCLC
  TGI: > 100 µM
SK-MEL-5 melanoma
  TGI: > 100 µM
MALME-3M melanoma
  TGI: > 100 µM
HT29 colon
  TGI: > 100 µM
SNB-19 CNS
  TGI: > 100 µM

## O=C1CC2CCCC23CC2(CCN13)OCCO2 (stereo not given)
A549 NSCLC
  TGI: > 100 µM
EKVX NSCLC
  TGI: > 100 µM
SK-MEL-5 melanoma
  TGI: > 100 µM
OVCAR-8 ovarian
  TGI: > 100 µM
MALME-3M melanoma
  TGI: > 100 µM
HT29 colon
  TGI: > 100 µM
SNB-19 CNS
  TGI: > 100 µM

## COc1cc2[nH]c(C(=O)c3cc(OC)c(OC)c(OC)c3)c(N)c2cc1C#CC1CC1
HS 578T breast
  GI50: 3.75 µM
  TGI: > 100 µM
NCI/ADR-RES ovarian
  GI50: 2.3 µM
  TGI: 14.4 µM
A549 NSCLC
  GI50: 6.65 µM
  TGI: > 100 µM
SK-MEL-5 melanoma
  GI50: 1.33 µM
  TGI: 22.4 µM
OVCAR-8 ovarian
  GI50: 5.3 µM
  TGI: > 100 µM
HT29 colon
  GI50: 3.38 µM
  TGI: 28 µM
DU-145 prostate
  GI50: 3.33 µM
  TGI: > 100 µM
SNB-19 CNS
  GI50: 5.85 µM
  TGI: > 100 µM

## Clc1ccc2c(c1)-c1c3c(nn1-c1ccccc1)-c1ccccc1SC3O2 (stereo not given)
A549 NSCLC
  TGI: > 100 µM
EKVX NSCLC
  TGI: > 100 µM
SK-MEL-5 melanoma
  TGI: > 100 µM
OVCAR-8 ovarian
  TGI: > 100 µM
MALME-3M melanoma
  TGI: > 100 µM
HT29 colon
  TGI: > 100 µM

## CN(CCC#N)c1ccc(/C=C(\C#N)c2ccc(Br)cc2)cc1
HS 578T breast
  GI50: > 100 µM
  TGI: > 100 µM
OVCAR-8 ovarian
  GI50: > 100 µM
  TGI: > 100 µM
MALME-3M melanoma
  GI50: > 100 µM
  TGI: > 100 µM
HT29 colon
  GI50: 3.16 µM
  TGI: > 100 µM
DU-145 prostate
  GI50: > 100 µM
  TGI: > 100 µM
SNB-19 CNS
  GI50: > 100 µM
  TGI: > 100 µM

## CCCCCCCCCCCC(=O)OCC1OC(OC)C(NC(=O)N(CCCl)N=O)C(O)C1O (stereo not given)
A549 NSCLC
  TGI: 36.8 µM
SK-MEL-5 melanoma
  TGI: 29.9 µM
OVCAR-8 ovarian
  TGI: 41 µM
MALME-3M melanoma
  TGI: 30.6 µM
HT29 colon
  TGI: 31.2 µM
SNB-19 CNS
  TGI: > 100 µM

## O=C1NC2OC(C(O)CO)C(O)C2O1 (stereo not given)
A549 NSCLC
  TGI: > 100 µM
EKVX NSCLC
  TGI: > 100 µM
SK-MEL-5 melanoma
  TGI: > 100 µM
OVCAR-8 ovarian
  TGI: > 100 µM
MALME-3M melanoma
  TGI: > 100 µM
HT29 colon
  TGI: > 100 µM
SNB-19 CNS
  TGI: > 100 µM

## ClCc1cccc(Cn2cnc3nc(Cl)nc(Cl)c32)c1
HS 578T breast
  GI50: 0.43 µM
  TGI: 2.51 µM
A549 NSCLC
  GI50: 6.46 µM
  TGI: 19.8 µM
EKVX NSCLC
  GI50: 0.84 µM
  TGI: 2.2 µM
SK-MEL-5 melanoma
  GI50: 0.614 µM
  TGI: 1.94 µM
OVCAR-8 ovarian
  GI50: 9.24 µM
  TGI: 21.2 µM
MALME-3M melanoma
  GI50: 6.15 µM
  TGI: 13 µM
DU-145 prostate
  GI50: 0.141 µM
  TGI: 0.271 µM
SNB-19 CNS
  GI50: 1.32 µM
  TGI: 2.69 µM

Reference: PubChem BioAssay (NCI)
